Data taken from ChEMBL document CHEMBL3217673, “Synthesis of cyanine dyes and investigation of their in vitro antiprotozoal activities” (Medchemcomm, 2012).

How the values were obtained:
Plasmodium falciparum = experiment: Antiprotozoal activity against chloroquine and pyrimethamine-resistant Plasmodium falciparum K1; format: functional, organism-based
[1] = Selectivity index, ratio of IC50 for rat L6 cells to IC50 for chloroquine and pyrimethamine-resistant Plasmodium falciparum K1; format: toxicity, cell-based; conditions: read-out: Ratio IC50
Trypanosoma cruzi = experiment: Antiprotozoal activity against Trypanosoma cruzi Tulahuen C2C4; format: functional, organism-based
[2] = Selectivity index, ratio of IC50 for rat L6 cells to IC50 for Trypanosoma cruzi Tulahuen C2C4; format: toxicity, cell-based; conditions: read-out: Ratio IC50
[3] = tested on: Trypanosoma brucei rhodesiense; experiment: Antiprotozoal activity against Trypanosoma brucei rhodesiense STIB900; format: functional, organism-based
[4] = Selectivity index, ratio of IC50 for rat L6 cells to IC50 for Trypanosoma brucei rhodesiense STIB900; format: toxicity, cell-based; conditions: read-out: Ratio IC50
Leishmania donovani = experiment: Antiprotozoal activity against Leishmania donovani MHOMET-67/L82; format: functional, organism-based
[5] = Selectivity index, ratio of IC50 for rat L6 cells to IC50 for Leishmania donovani MHOMET-67/L82; format: toxicity, cell-based; conditions: read-out: Ratio IC50
L6 = experiment: Cytotoxicity against rat L6 cells; format: cell-based

| SMILES | IC50 (Plasmodium falciparum) [nM] | selectivity ratio [1] | IC50 (Trypanosoma cruzi) [nM] | selectivity ratio [2] | IC50 [3] [nM] | selectivity ratio [4] | IC50 (Leishmania donovani) [nM] | selectivity ratio [5] | IC50 (L6) [nM] |
| --- | --- | --- | --- | --- | --- | --- | --- | --- | --- |
| CN1/C(=C/C=C/c2oc3ccccc3[n+]2C)Oc2ccccc21 | 38 | 98.5 | 106 | 35.6 | 707 | 5.3 | 211 | 17.8 | 3760 |
| Cc1ccc2c(c1)N(C)/C(=C/C=C/c1oc3ccccc3[n+]1C)O2 | 90 | 12.6 | 19 | 57.7 | 48 | 23.8 | 22 | 50.5 | 1140 |
| Cc1ccc2c(c1)N(C)/C(=C/C=C/c1oc3ccc(C)cc3[n+]1C)O2 | 14 | 17 |  |  | 54 | 4.3 | 5 | 42.5 | 230 |
| CN1/C(=C/C=C/c2oc3ccccc3[n+]2C)Oc2ccc(Cl)cc21 | 925 | 25.8 | 7750 | 3.1 | 5840 | 4.1 | 1460 | 16.3 | 23900 |
| Cc1ccc2oc(/C=C/C=C3\Oc4ccc(Cl)cc4N3C)[n+](C)c2c1 | 468 | 16.2 | 1370 | 5.5 | 136 | 55.7 | 110 | 68.6 | 7580 |
| CN1/C(=C/C=C/c2oc3ccc(Cl)cc3[n+]2C)Oc2ccc(Cl)cc21 | 6030 | 6 | 47800 | 0.8 | 5200 | 6.9 | 5320 | 6.7 | 35900 |
| CN1/C(=C/C=C/c2oc3ccccc3[n+]2C)Sc2ccccc21 | 2 | 303 | 11 | 75.8 | 185 | 4.6 | 90 | 9.5 | 849 |
| Cc1ccc2c(c1)N(C)/C(=C/C=C/c1oc3ccccc3[n+]1C)S2 | 11 | 13.5 |  |  | 113 | 1.3 | 14 | 10.8 | 146 |
| Cc1ccc2oc(/C=C/C=C3\Sc4ccccc4N3C)[n+](C)c2c1 | 16 | 7.5 |  |  | 496 | 0.2 | 40 | 3 | 121 |
| Cc1ccc2c(c1)N(C)/C(=C/C=C/c1oc3ccc(C)cc3[n+]1C)S2 | 8 | 12 |  |  | 39 | 2.4 | 10 | 9 | 94 |
| CN1/C(=C/C=C/c2oc3ccc(Cl)cc3[n+]2C)Sc2ccccc21 | 20 | 166 | 284 | 12 | 13 | 266 | 61 | 55.4 | 3400 |
| Cc1ccc2oc(/C=C/C=C3\Sc4ccc(Cl)cc4N3C)[n+](C)c2c1 | 20 | 60 | 109 | 10.9 | 62 | 19.2 | 89 | 13.3 | 1180 |
| CN1/C(=C/C=C/c2sc3ccccc3[n+]2C)Sc2ccc(F)cc21 | 5 | 94.5 |  |  | 394 | 1.2 | 79 | 6.1 | 483 |
| CCN1/C(=C/C=C/c2sc3ccccc3[n+]2C)Sc2ccc(F)cc21 | 7 | 32.3 |  |  | 452 | 0.5 | 111 | 2.2 | 240 |
